According to patent US12503454B2, “LPA receptor antagonists and uses thereof” (Gilead Sciences, Inc., priority 2021, dated 2025):

Target: human LPAR1 (Homo sapiens, UniProt Q92633)
Assay: LPAR1 intracellular calcium mobilization assay (antagonist mode, FLIPR)
Type: cell-based
Conditions: CHO-K1 EDG2 cells expressing human LPAR1; test compound 0.5 nM to 10 μM pre-incubated 60 minutes at 37° C., then LPA 18:2 at EC80 concentration (100 nM)
Experimental: In vitro LPAR1 activity was measured in an intracellular calcium mobilization assay. CHO-K1 EDG2 cells (DiscoverX cat #93-0644C2) expressing human LPAR1 (NM_001401.3) were seeded in a total volume of 25 μL of Dulbecco's Modification of Eagle's Medium (DMEM) with 10% Fetal Bovine Serum, 1× PenStrepGlutamine, 300 μg/ml Hygromycin, and 800 μg/ml G418 into 384-well tissue culture plate (Grenier #781091) at 15,000 cells/well and incubated at 37° C. overnight. Prior to testing, 25 μL Calcium Loading Dye Component A (FLIPR Calcium 6 Assay Kit Molecular Device # R8190) and 2.5 mM Probenecid (Invitrogen # P36400, prepared fresh) in Hank's Balanced Salt Solution (Corning #21-023-CV), 20 mM HEPES (Corning #25-060-CI), 0.1% Bovine Serum Albumin (Sigma-Aldrich # A7906-500G) was add to the cells for 60 minutes at 37° C.
Agonist dose curves of LPA 18:2 (Avanti Polar Lipids cat #857138, 0.5 nM to 10 μM) were recorded to determine the LPA 18:2 EC80 for subsequent antagonist assays. For agonist dose curves, cells were removed from the incubator 2 hours after dye loading and transferred to the FLIPR Tetra instrument (Molecular Devices, San Jose, CA). Calcium mobilization was monitored for 5 min and 10 μL 6×LPA in HBSS/20 mM Hepes/0.1% bovine serum albumin (BSA) was added to the cells 5 seconds into the assay.
To determine the LPAR1 antagonist activity of test compounds, cells were pre-incubated with test compound at a dose range of 0.5 nM to 10 μM, followed by LPA at EC80 concentration (100 nM). After dye loading, cells were removed from the incubator and 0.3 μL of 200× antagonist was added. Cells were incubated for 60 minutes at 37° C. Antagonist activity was measured on a FLIPR Tetra. Calcium mobilization was monitored for 3.5 minutes and 10 μL 6×EC80 LPA in HBSS, 20 mM HEPES, and 0.1% BSA was added to the cells 5 seconds into the assay. Signal amplitude (Maximum minus minimum) values were plotted against log10 of antagonist concentration using Dose Response Tool (Gilead Sciences Inc.) to determine […].
To assess the antagonistic potential of exemplified compounds […] were determined for Compounds 1 to 66 in the LPAR1 calcium mobilization assay. The compound numbers correspond to the compound numbers in Examples 1 to 18. N/A=not available.

Sequence of human LPAR1 (Q92633 whole entry): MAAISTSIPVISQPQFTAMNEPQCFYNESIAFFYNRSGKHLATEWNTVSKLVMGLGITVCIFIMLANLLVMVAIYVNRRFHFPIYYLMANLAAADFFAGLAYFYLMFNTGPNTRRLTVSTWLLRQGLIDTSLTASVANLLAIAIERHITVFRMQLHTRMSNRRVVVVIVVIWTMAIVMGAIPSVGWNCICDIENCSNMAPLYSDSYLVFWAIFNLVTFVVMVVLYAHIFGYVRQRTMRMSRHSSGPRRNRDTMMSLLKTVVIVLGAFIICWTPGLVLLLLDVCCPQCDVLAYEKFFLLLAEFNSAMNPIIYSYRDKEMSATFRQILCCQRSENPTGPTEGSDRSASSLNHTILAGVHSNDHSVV

Row | EC50 | Compound
1 | 75.8 nM | C[C@@H](OC(=O)Nc1c(-c2ccc(C(=O)Nc3ccncc3)cn2)nnn1C)c1cccnc1Cl [Compound 1, (R)-1-(2-chloropyridin-3-yl)ethyl (1-methyl-4-(5-(pyridin-4-ylcarbamoyl)pyridin-2-yl)-1H-1,2,3-triazol-5-yl)carbamate]
2 | 8.1 nM | C[C@@H](OC(=O)Nc1c(-c2ccc(C(=O)NC34CC(Cl)(C3)C4)cn2)nnn1C)c1cccnc1Cl [Compound 2, (R)-1-(2-chloropyridin-3-yl)ethyl (4-(5-((3-chlorobicyclo[1.1.1]pentan-1-yl)carbamoyl)pyridin-2-yl)-1-methyl-1H-1,2,3-triazol-5-yl)carbamate]
3 | 1420 nM | C[C@@H](OC(=O)Nc1c(-c2ccc(C(=O)NC3CC(F)(F)C3)cn2)nnn1C)c1cccnc1Cl [Compound 3, (R)-1-(2-chloro-pyridin-3-yl)-ethyl (4-(5-((3,3-difluoro-cyclobutyl)-carbamoyl)-pyridin-2-yl)-1-methyl-1H-1,2,3-triazol-5-yl)carbamate]
4 | 142 nM | C[C@@H](OC(=O)Nc1c(-c2ccc(C(=O)NC34CC(F)(C3)C4)cn2)nnn1C)c1cccnc1Cl [Compound 4, (R)-1-(2-chloro-pyridin-3-yl)-ethyl (4-(5-((3-fluorobicyclo-[1.1.1]pentan-1-yl)carbamoyl)-pyridin-2-yl)-1-methyl-1H-1,2,3-triazol-5-yl)carbamate]
5 | 42.9 nM | C[C@@H](OC(=O)Nc1c(-c2ccc(C(=O)NC34CC(C#N)(C3)C4)cn2)nnn1C)c1cccnc1Cl [Compound 5, (R)-1-(2-chloro-pyridin-3-yl)-ethyl (4-(5-((3-cyanobicyclo [1.1.1]pentan-1-yl)carbamoyl)-pyridin-2-yl)-1-methyl-1H-1,2,3-triazol-5-yl)carbamate]
6 | 56.1 nM | C[C@@H](OC(=O)Nc1c(-c2ccc(C(=O)NC34CC(C(F)F)(C3)C4)cn2)nnn1C)c1cccnc1Cl [Compound 6]
7 | 334 nM | C[C@@H](OC(=O)Nc1c(-c2ccc(C(=O)Nc3cccnc3)cn2)nnn1C)c1cccnc1Cl [Compound 7, (R)-1-(2-chloro-pyridin-3-yl)-ethyl (1-methyl-4-(5-(pyridin-3-ylcarbamoyl)-pyridin-2-yl)-1H-1,2,3-triazol-5-yl)carbamate]
8 | 30.4 nM | C[C@@H](OC(=O)Nc1c(-c2ccc(C(=O)NC34CC(C)(C3)C4)cn2)nnn1C)c1cccnc1Cl [Compound 8, (R)-1-(2-chloro-pyridin-3-yl)-ethyl (1-methyl-4-(5-((3-methyl-bicyclo[1.1.1]-pentan-1-yl)-carbamoyl)-pyridin-2-yl)-1H-1,2,3-triazol-5-yl)carbamate]
9 | 325 nM | C[C@@H](OC(=O)Nc1c(-c2ccc(C(=O)Nc3ccc(F)nc3)cn2)nnn1C)c1cccnc1Cl [Compound 9, (R)-1-(2-chloro-pyridin-3-yl)-ethyl (4-(5-((6-fluoropyridin-3-yl)carbam-oyl)pyridin-2-yl)-1-methyl-1H-1,2,3-triazol-5-yl)carbamate]
10 | 439 nM | C[C@@H](OC(=O)Nc1c(-c2ccc(C(=O)NC34CC(C3)C4)cn2)nnn1C)c1cccnc1Cl [Compound 10, (R)-1-(2-chloro-pyridin-3-yl)-ethyl (4-(5-(bicyclo[1.1.1]-pentan-1-yl-carbamoyl)-pyridin-2-yl)-1-methyl-1H-1,2,3-triazol-5-yl)carbamate]
11 | 62.7 nM | COC12CC(NC(=O)c3ccc(-c4nnn(C)c4NC(=O)O[C@H](C)c4cccnc4Cl)nc3)(C1)C2 [Compound 11, (R)-1-(2-chloro-pyridin-3-yl)-ethyl (4-(5-((3-methoxybicyclo-[1.1.1]pentan-1-yl)carbamoyl)-pyridin-2-yl)-1-methyl-1H-1,2,3-triazol-5-yl)carbamate]
12 | 26.5 nM | COC(=O)C12CC(NC(=O)c3ccc(-c4nnn(C)c4NC(=O)O[C@H](C)c4cccnc4Cl)nc3)(C1)C2 [Compound 12, (R)-methyl 3-(6-(5-(((1-(2-chloro-pyridin-3-yl)-ethoxy)carbon-yl)amino)-1-methyl-1H-1,2,3-triazol-4-yl)nicotinamido)-bicyclo[1.1.1]-pentane-1-carbox-ylate]
13 | 251 nM | C[C@@H](OC(=O)Nc1c(-c2ccc(C(=O)NC34CC(CO)(C3)C4)cn2)nnn1C)c1cccnc1Cl [Compound 13]
14 | 256 nM | C[C@@H](OC(=O)Nc1c(-c2ccc(C(=O)Nc3ccccc3)cn2)nnn1C)c1cccnc1Cl [Compound 14, (R)-1-(2-chloro-pyridin-3-yl)-ethyl (1-methyl-4-(5-(phenyl-carbamoyl)-pyridin-2-yl)-1H-1,2,3-triazol-5-yl)carbamate]
15 | 26.2 nM | C[C@@H](OC(=O)Nc1c(-c2ccc(C(=O)NC34CC(C(F)(F)F)(C3)C4)cn2)nnn1C)c1cccnc1Cl [Compound 15, (R)-1-(2-chloro-pyridin-3-yl)ethyl (1-methyl-4-(5-((3-(trifluoro-methyl)bicyclo-[1.1.1]pentan-1-yl)carbamoyl)-pyridin-2-yl)-1H-1,2,3-triazol-5-yl)carbamate]
16 | 3590 nM | C[C@@H](OC(=O)Nc1c(-c2ccc(C(=O)NC3CCOCC3)cn2)nnn1C)c1cccnc1Cl [Compound 16, (R)-1-(2-chloro-pyridin-3-yl)-ethyl (1-methyl-4-(5-((tetrahydro-2H-pyran-4-yl)-carbamoyl)-pyridin-2-yl)-1H-1,2,3-triazol-5-yl)carbamate]
17 | 649 nM | C[C@@H](OC(=O)Nc1c(-c2ccc(C(=O)Nc3ccc(N4CCOCC4)cc3)cn2)nnn1C)c1cccnc1Cl [Compound 17, (R)-1-(2-chloro-pyridin-3-yl)-ethyl (1-methyl-4-(5-((4-morph-olinophenyl)-carbamoyl)-pyridin-2-yl)-1H-1,2,3-triazol-5-yl)carbamate]
18 | 91.2 nM | C[C@@H](OC(=O)Nc1c(-c2ccc(C(=O)NC34CC(C#N)(C3)C4)cn2)nnn1C)c1cc(F)cnc1F [Compound 18, (R)-1-(2,5-difluoropyridin-3-yl)ethyl (4-(5-((3-cyanobicyclo[1.1.1]pentan-1-yl)carbamoyl)pyridin-2-yl)-1-methyl-1H-1,2,3-triazol-5-yl)carbamate]
19 | 16.6 nM | C[C@@H](OC(=O)Nc1c(-c2ccc(C(=O)Nc3ccnc(C(F)(F)F)c3)cn2)nnn1C)c1cc(F)cnc1F [Compound 19, (R)-1-(2,5-difluoropyridin-3-yl)ethyl (1-methyl-4-(5-((2-(trifluoromethyl)pyridin-4-yl)carbamoyl)pyridin-2-yl)-1H-1,2,3-triazol-5-yl)carbamate]
20 | 313 nM | C[C@@H](OC(=O)Nc1c(-c2ccc(C(=O)NC34CC(F)(C3)C4)cn2)nnn1C)c1cc(F)cnc1F [Compound 20, (R)-1-(2,5-difluoro-pyridin-3-yl)ethyl (4-(5-((3-fluoro-bicyclo[1.1.1]-pentan-1-yl)-carbamoyl)pyridin-2-yl)-1-methyl-1H-1,2,3-triazol-5-yl)carbamate]
21 | 44.8 nM | C[C@@H](OC(=O)Nc1c(-c2ccc(C(=O)NC34CC(Cl)(C3)C4)cn2)nnn1C)c1cc(F)cnc1F [Compound 21, (R)-1-(2,5-difluoro-pyridin-3-yl)ethyl (4-(5-((3-chloro-bicyclo[1.1.1]-pentan-1-yl)-carbamoyl)pyridin-2-yl)-1-methyl-1H-1,2,3-triazol-5-yl)carbamate]
22 | 84.8 nM | C[C@@H](OC(=O)Nc1c(-c2ccc(C(=O)NC34CC(C(F)(F)F)(C3)C4)cn2)nnn1C)c1cc(F)cnc1F [Compound 22, (R)-1-(2,5-difluoro-pyridin-3-yl)ethyl (1-methyl-4-(5-((3-(trifluorometh-yl)bicyclo[1.1.1]-pentan-1-yl)carbam-oyl)pyridin-2-yl)-1H-1,2,3-triazol-5-yl)carbamate]
23 | 159 nM | C[C@@H](OC(=O)Nc1c(-c2ccc(C(=O)NC34CC(C(F)F)(C3)C4)cn2)nnn1C)c1cc(F)cnc1F [Compound 23, (R)-1-(2,5-difluoro-pyridin-3-yl)ethyl (4-(5-((3-(difluoro-methyl)bicyclo-[1.1.1]pentan-1-yl)carbamoyl)-pyridin-2-yl)-1-methyl-1H-1,2,3-triazol-5-yl)-carbamate]
24 | 222 nM | C[C@@H](OC(=O)Nc1c(-c2ccc(C(=O)Nc3cnc(C(F)(F)F)nc3)cn2)nnn1C)c1cc(F)cnc1F [Compound 24, (R)-1-(2,5-difluoro-pyridin-3-yl)ethyl (1-methyl-4-(5-((2-(trifluorometh-yl)pyrimidin-5-yl)-carbamoyl)pyridin-2-yl)-1H-1,2,3-triazol-5-yl)-carbamate]
